Laboratory results published in ChEMBL document CHEMBL4840323, “Discovery of an Orally Bioavailable Small-Molecule Inhibitor for the β-Catenin/B-Cell Lymphoma 9 Protein-Protein Interaction” (J Med Chem, 2021).

Experiments:
[1] = target: T1, beta-catenin-B-cell lymphoma 9 protein complex (Homo sapiens, UniProt P35222); assay: Inhibition of C-terminal 6-His-tagged beta-catenin (1 to 781 residues) (unknown origin) expressed in Escherichia coli BL21 (DE3)-N-terminal biotinylated human BCL9 (350 to 375 residues) protein-protein interaction incubated for 1 hr by Alphascreen assay
T1 sequence (P35222 whole entry): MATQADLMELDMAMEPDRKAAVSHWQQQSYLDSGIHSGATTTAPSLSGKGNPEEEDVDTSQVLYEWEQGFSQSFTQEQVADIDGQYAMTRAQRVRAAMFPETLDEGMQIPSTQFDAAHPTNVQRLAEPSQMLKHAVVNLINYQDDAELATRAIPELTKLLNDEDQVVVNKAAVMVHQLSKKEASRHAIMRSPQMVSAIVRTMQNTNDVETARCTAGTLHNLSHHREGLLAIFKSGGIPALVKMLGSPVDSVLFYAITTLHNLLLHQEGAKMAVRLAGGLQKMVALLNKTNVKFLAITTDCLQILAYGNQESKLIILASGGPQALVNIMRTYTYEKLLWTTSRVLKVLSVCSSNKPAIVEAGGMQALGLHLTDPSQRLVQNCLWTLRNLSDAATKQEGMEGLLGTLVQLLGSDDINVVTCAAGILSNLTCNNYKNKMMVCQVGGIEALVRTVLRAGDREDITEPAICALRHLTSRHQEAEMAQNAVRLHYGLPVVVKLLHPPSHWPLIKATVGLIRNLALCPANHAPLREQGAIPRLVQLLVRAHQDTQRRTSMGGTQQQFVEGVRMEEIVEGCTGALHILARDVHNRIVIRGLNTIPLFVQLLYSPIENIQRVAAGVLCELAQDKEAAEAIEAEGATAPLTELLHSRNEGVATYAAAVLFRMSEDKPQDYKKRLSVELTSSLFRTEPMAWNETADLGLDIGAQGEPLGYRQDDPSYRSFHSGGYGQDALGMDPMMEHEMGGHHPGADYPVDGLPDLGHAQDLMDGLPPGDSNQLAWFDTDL
T1 sequence (O00512 whole entry): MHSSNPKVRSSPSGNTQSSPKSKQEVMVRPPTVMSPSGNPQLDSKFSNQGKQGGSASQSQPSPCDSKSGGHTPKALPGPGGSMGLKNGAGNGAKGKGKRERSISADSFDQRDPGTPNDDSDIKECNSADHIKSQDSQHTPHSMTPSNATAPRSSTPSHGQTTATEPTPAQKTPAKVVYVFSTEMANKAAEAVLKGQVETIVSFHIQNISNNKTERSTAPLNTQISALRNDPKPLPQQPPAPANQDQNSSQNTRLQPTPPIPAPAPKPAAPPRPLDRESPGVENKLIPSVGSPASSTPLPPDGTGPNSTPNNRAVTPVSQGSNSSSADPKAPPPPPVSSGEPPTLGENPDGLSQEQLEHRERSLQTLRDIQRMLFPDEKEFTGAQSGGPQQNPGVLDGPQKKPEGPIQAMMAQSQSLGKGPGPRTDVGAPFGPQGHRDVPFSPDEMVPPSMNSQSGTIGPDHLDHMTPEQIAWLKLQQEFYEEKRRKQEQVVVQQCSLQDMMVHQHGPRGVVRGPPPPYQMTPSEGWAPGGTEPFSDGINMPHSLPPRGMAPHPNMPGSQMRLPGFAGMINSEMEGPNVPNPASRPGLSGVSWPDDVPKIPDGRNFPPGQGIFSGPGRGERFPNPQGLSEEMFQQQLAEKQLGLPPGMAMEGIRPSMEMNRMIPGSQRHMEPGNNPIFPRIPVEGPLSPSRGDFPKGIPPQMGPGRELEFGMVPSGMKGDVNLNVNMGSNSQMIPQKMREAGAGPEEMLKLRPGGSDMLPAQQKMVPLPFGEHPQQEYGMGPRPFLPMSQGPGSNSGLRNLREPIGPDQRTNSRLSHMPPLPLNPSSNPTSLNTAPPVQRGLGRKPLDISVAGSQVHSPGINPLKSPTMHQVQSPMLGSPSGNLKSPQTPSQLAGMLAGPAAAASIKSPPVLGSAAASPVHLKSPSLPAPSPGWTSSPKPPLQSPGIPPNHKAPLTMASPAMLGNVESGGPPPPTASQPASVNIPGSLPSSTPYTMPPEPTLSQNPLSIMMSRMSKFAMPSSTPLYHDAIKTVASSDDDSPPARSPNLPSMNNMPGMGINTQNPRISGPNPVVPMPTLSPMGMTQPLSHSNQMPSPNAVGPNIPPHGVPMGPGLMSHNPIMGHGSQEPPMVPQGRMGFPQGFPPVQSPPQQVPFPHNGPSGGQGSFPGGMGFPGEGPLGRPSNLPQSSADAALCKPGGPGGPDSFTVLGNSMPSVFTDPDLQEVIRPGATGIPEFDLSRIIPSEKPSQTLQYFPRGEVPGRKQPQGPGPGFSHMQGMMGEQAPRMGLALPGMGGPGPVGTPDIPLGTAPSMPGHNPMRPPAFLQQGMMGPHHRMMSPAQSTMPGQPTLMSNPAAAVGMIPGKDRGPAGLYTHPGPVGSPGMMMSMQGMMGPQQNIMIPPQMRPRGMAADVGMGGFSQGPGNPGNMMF

[2] = target: T1, beta-catenin-B-cell lymphoma 9 protein complex; assay: Inhibition of N-terminal 6-His-tagged beta-catenin (1 to 781 residues) (unknown origin) expressed in Escherichia coli BL21 (DE3)-N-terminal biotinylated human BCL9 (350 to 375 residues) protein-protein interaction incubated for 1 hr by Alphascreen assay
[3] = Intrinsic clearance in mouse liver microsomes at 1 uM measured up to 60 mins in presence of NADPH by LC-MS/SM analysis; type: ADME, Microsome; settings: 1 h
[4] = Half life in human liver microsomes at 1 uM measured up to 60 mins in presence of NADPH by LC-MS/SM analysis; type: ADME, Microsome; settings: 1 h
[5] = Intrinsic clearance in human liver microsomes at 1 uM measured up to 60 mins in presence of NADPH by LC-MS/SM analysis; type: ADME, Microsome
[6] = Half life in mouse liver microsomes at 1 uM measured up to 60 mins in presence of NADPH by LC-MS/SM analysis; type: ADME, Microsome; settings: 1 h
[7] = test system: SW480; assay: cells; settings: Homo sapiens, SW480, 72 h
Description: Antiproliferative activity against human SW480 cells assessed as cell growth inhibition measured after 72 hrs by MTS assay

[8] = test system: HCT-116; assay: cells; settings: Homo sapiens, HCT-116, 72 h
Description: Antiproliferative activity against human HCT-116 cells assessed as cell growth inhibition measured after 72 hrs by MTS assay

[9] = test system: MDA-MB-468; assay: cells; settings: Homo sapiens, MDA-MB-468, 72 h
Description: Antiproliferative activity against human MDA-MB-468 cells assessed as cell growth inhibition measured after 72 hrs by MTS assay

[10] = test system: MDA-MB-231; assay: cells; settings: Homo sapiens, MDA-MB-231, 72 h
Description: Antiproliferative activity against human MDA-MB-231 cells assessed as cell growth inhibition measured after 72 hrs by MTS assay

[11] = test system: MCF-10A; assay: cells; settings: Homo sapiens, 72 h
Description: Cytotoxicity against human MCF-10A cells assessed as cell growth inhibition measured after 72 hrs by MTS assay

[12] = target: T2, Catenin beta-1 (Homo sapiens, UniProt P35222); assay: Inhibition of beta-catenin (unknown origin) transfected in HEK293 cells cotransfected with pCMV-RL assessed as reduction in luciferase activity measured after 24 hrs by TOPFlash luciferase reporter assay; type: cell-based
T2 sequence (P35222 whole entry): T1 sequence (P35222 whole entry)

| Compound | IC50 [1] | Ki [2] | also measured |
| --- | --- | --- | --- |
| CC(C)c1ccc(CN(C)C(=O)[C@@H]2CCCN(c3cccc(OC(C)(C)C(=O)N4CCNCC4)c3)C2)cc1 | 15 µM | 14 µM |  |
| CC(C)(Oc1cccc(N2CCC[C@@H](C(=O)N(Cc3ccc(-c4ccncc4)cc3)C3CC3)C2)c1)C(=O)N1CCNCC1 | 82 µM | 74 µM |  |
| CC(C)(Oc1cccc(N2CCC[C@@H](C(=O)N(Cc3ccc(-c4cn[nH]c4)cc3)C3CC3)C2)c1)C(=O)N1CCCCC1 | 53 µM | 43 µM |  |
| CCN(Cc1ccc(-c2cn[nH]c2)cc1)C(=O)[C@@H]1CCCN(c2cccc(OC(C)(C)C(=O)N3CCNCC3)c2)C1.Cl |  |  | CLint [3]: 90 µL/min/mg; t1/2 [4]: 28.3 min; CLint at 1 h, 1 µM [5]: 24 µL/min/mg; t1/2 [6]: 7.7 min |
| O=C1[C@H](Cc2ccc(O)cc2)N2C(=O)CCN(C(=O)NCc3ccccc3)[C@H]2CN1Cc1cccc2ccccc12 |  |  | IC50 [7]: 6.1 µM; IC50 [8]: 38 µM; IC50 [9]: 31 µM; IC50 [10]: 7.2 µM; IC50 [11]: 21 µM |
| CC(C)c1ccc(CNC(=O)[C@H]2CCCN(c3cccc(OC(C)(C)C(=O)O)c3)C2)cc1 | > 100 µM | > 90 µM |  |
| CC(C)(Oc1cccc(N2CCC[C@@H](C(=O)N(Cc3ccc(-c4ccccn4)cc3)C3CC3)C2)c1)C(=O)N1CCNCC1 | 59 µM | 54 µM |  |
| CC(C)(Oc1cccc(N2CCC[C@@H](C(=O)N(Cc3ccc(-c4cccnc4)cc3)C3CC3)C2)c1)C(=O)N1CCNCC1 | 73 µM | 66 µM |  |
| Cn1cc(-c2ccc(CN(C(=O)[C@@H]3CCCN(c4cccc(OC(C)(C)C(=O)N5CCNCC5)c4)C3)C3CC3)cc2)cn1 | 76 µM | 68 µM |  |
| Cc1cc(-c2ncc(CC(=O)Nc3ccc(-c4cnccn4)cn3)cc2C)ccn1 [WNT-974] |  |  | IC50 [7]: > 100 µM; IC50 [8]: > 100 µM; IC50 [9]: > 100 µM; IC50 [10]: > 100 µM; IC50 [11]: > 100 µM |
| CCN(CC)CCNC(=O)c1c(C)[nH]c(/C=C2\C(=O)Nc3ccc(F)cc32)c1C [SUNITINIB] |  |  | CLint [3]: 53 µL/min/mg; t1/2 [6]: 13 min |
| CC(C)(Oc1cccc(N2CCC[C@@H](C(=O)N(Cc3ccc(C(C)(C)C)cc3)C3CC3)C2)c1)C(=O)N1CCNCC1 | 14 µM | 13 µM |  |
| CC(C)c1ccc(CNC(=O)[C@@H]2CCCN(c3cccc(OC(C)(C)C(=O)O)c3)C2)cc1 | 51 µM | 46 µM |  |
| CN1CCN(C(=O)C(C)(C)Oc2cccc(N3CCC[C@@H](C(=O)N(Cc4ccc(-c5cn[nH]c5)cc4)C4CC4)C3)c2)CC1 | 39 µM | 32 µM | IC50 [12]: > 200 µM |

The next lines start with results.

| IC50 [1] | Ki [2] | Compound | also measured |
| --- | --- | --- | --- |
| 5.1 µM | 4.6 µM | CC(C)c1ccc(CN(C(=O)[C@@H]2CCCN(c3cccc(OC(C)(C)C(=O)N4CCNCC4)c3)C2)C(C)C)cc1 |  |
| 4.5 µM | 4 µM | CC(C)(Oc1cccc(N2CCC[C@@H](C(=O)N(Cc3ccc(-c4ccccc4)cc3)C3CC3)C2)c1)C(=O)N1CCNCC1 |  |
| 8.9 µM | 8 µM | CC(C)(Oc1cccc(N2CCC[C@@H](C(=O)N(Cc3ccc(-c4ccn[nH]4)cc3)C3CC3)C2)c1)C(=O)N1CCNCC1 |  |
| 3 µM | 2.7 µM | CC(C)c1ccc(CN(C(=O)[C@@H]2CCCN(c3cccc(OC(C)(C)C(=O)N4CCNCC4)c3)C2)C2CC2)cc1 |  |
| 5.5 µM | 5 µM | CC(C)(Oc1cccc(N2CCC[C@@H](C(=O)N(Cc3ccc(-c4ccsc4)cc3)C3CC3)C2)c1)C(=O)N1CCNCC1 |  |
| 6.4 µM | 5.8 µM | CC(C)c1ccc(CNC(=O)[C@@H]2CCCN(c3cccc(OC(C)(C)C(=O)N4CCNCC4)c3)C2)cc1 |  |
| 2.1 µM | 1.9 µM | CCOCCN(Cc1ccc(-c2cn[nH]c2)cc1)C(=O)[C@@H]1CCCN(c2cccc(OC(C)(C)C(=O)N3CCNCC3)c2)C1 |  |
| 12 µM | 11 µM | CCN(Cc1ccc(C(C)C)cc1)C(=O)[C@@H]1CCCN(c2cccc(OC(C)(C)C(=O)N3CCNCC3)c2)C1 |  |
| 5.3 µM | 4.8 µM | CC(C)(Oc1cccc(N2CCC[C@@H](C(=O)N(Cc3ccc(C4CCCCC4)cc3)C3CC3)C2)c1)C(=O)N1CCNCC1 |  |
